Values quoted from earlier work as cited in paper PMC3723878 (PLoS ONE, 2013).

Target: T1, α1A-AR (Homo sapiens, UniProt P35348)
T1 sequence (P35348 1-466): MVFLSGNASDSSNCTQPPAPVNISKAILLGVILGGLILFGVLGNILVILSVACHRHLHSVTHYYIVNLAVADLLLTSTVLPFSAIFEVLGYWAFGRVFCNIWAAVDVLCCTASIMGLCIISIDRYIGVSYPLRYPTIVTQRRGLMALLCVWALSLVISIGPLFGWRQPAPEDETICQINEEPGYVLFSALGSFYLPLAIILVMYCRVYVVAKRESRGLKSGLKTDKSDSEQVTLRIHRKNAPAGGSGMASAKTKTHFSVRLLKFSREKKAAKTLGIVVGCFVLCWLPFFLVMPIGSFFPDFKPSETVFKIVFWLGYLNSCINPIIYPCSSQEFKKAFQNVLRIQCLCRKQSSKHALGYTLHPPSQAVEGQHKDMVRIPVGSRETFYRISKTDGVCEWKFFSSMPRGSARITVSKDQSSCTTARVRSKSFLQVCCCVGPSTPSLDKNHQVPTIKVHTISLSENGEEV
Set-up: expressed in transfected cells; method as in PMID 20978120
Conditions: CHO cells used for Ca^2+ release experiments; cited from earlier work

O=C1c2ccccc2CCC1CNCCc1ccc(O)c([125I])c1 (stereo not shown) [125I-HEAT]
pKD: 9.2±0.09
